Laboratory results taken from patent publication US5723496A, “Method for prevention and treatment of harmful effects of intracellular acidosis” (priority 1995, dated 1998).
Several values for one entry are separate records, joined by “and”; a condition that tells them apart may be missing. Equal entries are not always repeated. Entries after “also recorded” stand apart in the source; their conditions may differ.

Columns and labels:
[1] = cited from earlier work
[2] = design: species or system Adult Swiss mice; details: mouse, in vivo
Description: (§1) Adult Swiss mice (BK-1 male 20 g) purchased from Bantin & Kingman, Fremont, Calif., were used. Each batch consisted of 15 mice. Within each batch, five mice were selected randomly to be in the GES, taurine, or control group. A taurine group was included to serve as additional control.
Arterial blood gas sample was collected by puncture of the lower portion of the descending aorta under pentobarbital anesthesia. Analysis was performed on a Corning 168 Blood Gas Analyzer.

[3] = test system: adult mice exposed to anoxia; test: survival of adult mice exposed to anoxia; assay type: in vivo, Adult Swiss mice; design: mortality, 2.5 minutes of anoxia / protection against 2.5 minutes anoxia: concentration or dose not given beside the values
Description: Adult Swiss mice (BK-1 males, 20 g) purchased from Bantin & Kingman, Fremont, Calif. were used. Each batch consisted of 10 mice. Within each batch five mice were selected randomly as experimental animals and the remaining five as controls. Experimental mice received daily intraperitoneal injections of 0.25 ml of GES (50 mg/ml) for 14 days.
At day 14, all mice within the same batch (5 experimental and 5 each of the […]) were placed in a specially designed chamber (26.5×24.5×21.0 cm). Anoxia/hypoxia was produced by infusion of pure nitrogen gas ([…]) into the chamber for 2.5 or 2.75 minutes. Anoxia/hypoxia was reversed immediately after these intervals by removing the chamber and placing the mice in a room air environment.
The results are shown in FIG. 1 and discussed in detail above.

[4] = test system: brains of newborn rat pups; test: brain intracellular pH and lactate of rat pups before and after 7.5 min anoxia (in vivo NMR); design: species or system Sprague-Dawley rats
Description: A Nicolet NMR System NT-200 (4.7T) was used for NMR experiments. Mice, rats or pups (Sprague-Dawley) were lightly anesthetized with ketamine hydrochloride, 50 mg/kg I.P., and placed in the NMR probe which contained an oval surface coil (one turn, 8×12 mm diameter) tunable to the resonance frequency of the proton and ^31 P. To eliminate signal contamination, scalp and temporal muscle were retracted. Field homogeneity was maximized by skimming on water proton signals. To produce anoxia, 100% nitrogen gas was rapidly infused (14 l/min) into the probe chamber. Anoxia could be reversed by infusion of air. Calibration studies using an oxygen meter (OM-1 Biological oxygen Meter, Micro-electrodes, Inc.) confirmed that this technique produced complete O2 depletion in the chamber or its reversal within 1 minute. ^1 H spectra were obtained at 199.97 MHz=z using a 1331-.tau.-2662 spin echo sequence with a .tau. delay of 68 ms (spectral width: 2 KHz, memory block: 4K, recycle time 2.7 seconds). The interpulse delay of the Hore sequence was adjusted so that the lactate resonance experienced least attenuation. ^31 P spectra were obtained at 80.99 MHz using a one pulse sequence (spectral width: 6 KHz, memory block: 4K, recycle time 2.7 seconds). The free induction decay (FID) like signals from remaining water proton signals were eliminated by applying sine function […]. The broad resonance with short T2 on ^31 P NMR spectra was removed using the convolution difference technique. Line broadening of 5 Hz and 30 Hz were applied as noise filter for proton and ^31 P spectra, respectively.
These animals were designated to be the experimental group. Physiological saline was administered to the control group of rats. Each group consisted of 10 animals.
On the last day of the administration, i.e. at day 10, the animals were each fixed in a special chamber set within a 4.7 T nuclear magnetic resonance apparatus. […]
The pH level and the lactate concentration in the cerebral cells before and after anoxia were measured by nuclear magnetic resonance spectroscopy using the procedure described above.

[5] = observation of behavior and respiratory pattern; assay type: in vivo, Adult Swiss mice; details: mouse, in vivo, ip
Excerpt: as §1

anaerobic glycolysis = test: brain lactate after 2.5 min anoxia; assay type: in vivo, Adult Swiss mice
Description: as §1
Brain lactate levels were determined for mice exposed to 2.5 minutes of anoxia as follows. Animals were exposed to 2.5 minutes of anoxia under pentobarbital anesthesia. Immediately after the exposure, animals were immersed into a liquid nitrogen. The frozen brains were removed by chiseling and extracted as described above. Lactate concentration was determined using the lactate dehydrogenase reaction.

[6] = in vivo; cited from earlier work

Structure (SMILES): O=S(=O)(O)CCN1CCOCC1 [MES, 2-(N-morpholino) ethane sulfonic acid, reference compound]
- pKa value [1]: 6.1

Structure (SMILES): Nc1ncnc2c1ncn2[C@@H]1O[C@H](COP(=O)(O)OP(=O)(O)OP(=O)(O)O)[C@@H](O)[C@H]1O [adenosine triphosphate (ATP), adenosine triphosphate]
- pKa value [1]: 6.95

Structure (SMILES): NCCS(=O)(=O)O [taurine, 2-amineethanesulfonic acid, reference compound]
- arterial pCO2 [2]: 41.26 ± 5.39 mmHg
- arterial pH [2]: 7.26 ± 0.04
- arterial pO2 [2]: 97.7 ± 12.9 mmHg
- protection against anoxia / survival (in words) [3]: no difference between taurine pretreated animals (column B) and saline pretreated animal
- mortality, 2.5 minutes of anoxia ([3]; 14 days i.p. pretreatment): 40% and 60%
- protection against 2.5 minutes anoxia ([3]; FIG. 1): 40%
- effect on pH depression in anoxia (in words) [4]: pH depression is considerably prevented
- brain pH after anoxia ([4]; taurine 16 mmol/kg/day i.p., after 7.5 min anoxia): 7.0
- brain pH before anoxia ([4]; taurine 16 mmol/kg/day i.p., day 10): 7.3
- observable adverse effects in behavior or respiratory pattern [5]: did not show any observable adverse effects
- Lactate (anaerobic glycolysis; Table 4, n = 5, post 2.5 min anoxia): 0.48 ± 0.08 mM
- lactate levels post 2.5 min anoxia (in words) (anaerobic glycolysis; among three groups): essentially identical among the three groups
- blood-brain barrier crossing (in words) [6]: does not cross the blood-brain barrier in adult mice; also recorded: does not cross the blood brain barrier freely in the adult mouse; also recorded: does cross the blood-brain barrier in newborns but it has no such effect in the adults
